Laboratory results as given in patent publication US9181181B2, “2-substituted-3-phenylpropionic acid derivatives and their use in the treatment of inflammatory bowel disease” (Albireo AB, priority 2007, dated 2015).

How the values were obtained:
human PPARgamma = human PPARgamma (Homo sapiens (Human), UniProt P37231); test: Transactivation (reporter gene) assay, GAL4-PPARgamma LBD in U-2 OS cells; assay type: cell-based; details: 40 h incubation, 16 μM Pioglitazone as 100% control, read-out: EC50 PPARγ
human PPARgamma, sequence (P37231 205-505): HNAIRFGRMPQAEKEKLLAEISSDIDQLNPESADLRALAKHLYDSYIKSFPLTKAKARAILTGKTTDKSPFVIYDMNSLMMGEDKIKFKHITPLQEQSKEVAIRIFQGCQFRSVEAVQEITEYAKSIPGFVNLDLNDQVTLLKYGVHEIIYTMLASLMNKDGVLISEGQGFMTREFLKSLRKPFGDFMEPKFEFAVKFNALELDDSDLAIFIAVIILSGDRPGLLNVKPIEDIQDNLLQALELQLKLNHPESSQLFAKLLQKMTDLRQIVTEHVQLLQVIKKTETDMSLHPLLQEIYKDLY
Experimental: (§1) Transactivation Assay Expression vectors were prepared by inserting the ligand binding domain cDNA (complementary DNA) of human PPARalpha (amino acid 168-468) and human PPARgamma (amino acid 205-505), 3′ to and in frame with, the yeast GAL4 transcription factor DNA binding domain and the nuclear localization signal from the T-antigen of Polyoma Virus into the mammalian expression vector pSGS (Stratagene). The resulting expression vectors pSGGAL-PPARalpha and pSGGAL-PPARgamma were used in co-transfection experiments together with a modified pGL3 promoter plasmid (Promega) containing five copies of the UAS GAL4 recognition site. 2.5 μg pSGGAL-PPARalpha or pSGGAL-PPARgamma were mixed with 25 μg pGL3p […] and 22.5 μg pBluescript (Stratagene) in 0.95 mL ice cold PBS containing between 9-12 million U-2 OS (human osteosarcoma) cells. The cell/DNA mixture was incubated on ice for 5 minutes and then divided between two 0.4 cm cuvettes and electroporated at 960 μF, 230 V using a BioRad electroporator. The two electroporation mixes were combined in assay medium [Dulbecco's Modified Eagle Medium w/o phenol red, (Gibco 11880-028) including 10% FBS (Foetal Bovine Serum), 1% PEST (Penicillin & Streptomycin), 20 mM Hepes, 2 mM L-Glutamine and 0.36% Glucose (Gibco 31966-021)] at 0.32 million cells/ml. 25 μl diluted, electroporated cells, were seeded into 384-well plates and allowed to adhere for 3-4 h at 37° C., 5% CO2 in a cell culture incubator. Test compounds in DMSO were diluted 40 fold in assay medium. 7 μl of diluted compound was added to the adhered electroporated cells and incubation was continued for 40 h in a cell culture incubator. Cells were lysed by adding 32 μl/well LucLite (Packard) and incubated at room temperature for 15 minutes. Luciferase activity was measured using a luminometry protocol on a Wallac Victor2 plate reader. 16 μM ETYA was used as the 100% control for humanPPARalpha activity and 16 μM Pioglitazone was used as the 100% control for humanPPARgamma activity. In Vivo Assay Determination of Plasma Clearance and Oral Bioavailability in Hamster or Mouse

human PPARalpha = human PPARalpha (Homo sapiens (Human), UniProt Q07869); test: Transactivation (reporter gene) assay, GAL4-PPARalpha LBD in U-2 OS cells; assay type: cell-based; details: 40 h incubation, 16 μM ETYA as 100% control, read-out: EC50 PPARα
human PPARalpha, sequence (Q07869 168-468): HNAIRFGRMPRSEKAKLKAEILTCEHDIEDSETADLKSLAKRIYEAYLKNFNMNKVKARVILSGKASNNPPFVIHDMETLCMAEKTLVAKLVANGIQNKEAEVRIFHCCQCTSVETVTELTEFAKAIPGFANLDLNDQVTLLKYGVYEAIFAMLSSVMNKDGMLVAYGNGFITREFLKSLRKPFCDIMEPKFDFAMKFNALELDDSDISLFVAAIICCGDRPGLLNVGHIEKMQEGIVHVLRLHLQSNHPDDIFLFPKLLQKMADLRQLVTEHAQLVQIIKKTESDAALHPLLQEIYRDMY
Experimental: as §1

SMILES | EC50 (human PPARgamma) [nM] | EC50 (human PPARalpha) [nM]
CCOC(Cc1ccc(C(=O)OCc2ccc(OS(C)(=O)=O)cc2)cc1)C(=O)O (stereo not shown) [Example 27, 4-(2-Carboxy-2-ethoxy-ethyl)-benzoic acid 4-methanesulfonyloxy-benzyl ester] | 1400 | –
CCOC(Cc1ccc(OC(=O)Cc2ccc(NC(=O)OC(C)(C)C)cc2)c(Cc2ccccc2)c1)C(=O)O (stereo not shown) [Example 24, 3-{3-Benzyl-4-[2-(4-tert-butoxycarbonylamino-phenyl)-acetoxy]-phenyl}-2-ethoxy-propionic acid] | 5.2 | –
O=C(Cc1ccc(SCc2ccccc2C(=O)O)cc1)OCCc1ccccc1C(F)(F)F [Example 40, 2-{4-[2-(2-Trifluoromethylphenyl)ethoxycarbonylmethyl]phenylsulfanylmethyl}-benzoic acid] | 8200 | 760
O=C(Cc1cccc(SCc2ccccc2C(=O)O)c1)OCCc1ccccc1C(F)(F)F [Example 38, 2-{3-[2-(2-Trifluoromethylphenyl)ethoxycarbonylmethyl]phenylsulfanylmethyl}-benzoic acid] | 9000 | 3800
C=CCC(OC(=O)Cc1ccc(SCc2ccccc2C(=O)O)cc1)c1ccccc1 (stereo not shown) [Example 34, 2-[4-(1-Phenyl-but-3-enyloxycarbonylmethyl)-phenylsulfanylmethyl]-benzoic acid] | 15000 | 18000
COc1ccc(CC(=O)OCc2ccc(CC(SCCc3ccc(F)cc3)C(=O)O)cc2)cc1 (stereo not shown) [Example 8] | 2500 | 270
Cc1cccc(C)c1COC(=O)Cc1ccc(SCc2ccccc2C(=O)O)cc1 [Example 33, 2-[4-(2,6-Dimethyl-benzyloxycarbonylmethyl)-phenylsulfanylmethyl]-benzoic acid] | 18000 | 620
CS(=O)(=O)Oc1ccc(COC(=O)c2ccc(CC(SCCc3ccc(F)cc3)C(=O)O)cc2)cc1 (stereo not shown) [Example 16, 4-{2-Carboxy-2-[2-(4-fluoro-phenyl)-ethylsulfanyl]-ethyl}-benzoic acid 4-methanesulfonyloxy-benzyl ester] | – | 1100
CCOC(Cc1ccc(OC(=O)Cc2nc(-c3ccccc3)oc2C)c(Cc2ccccc2)c1)C(=O)O (stereo not shown) [Example 23, 3-{3-Benzyl-4-[2-(5-methyl-2-phenyl-oxazol-4-yl)-acetoxy]-phenyl}-2-ethoxy-propionic acid] | 53 | –
O=C(OCc1nc(-c2ccccc2)oc1C(F)(F)F)c1ccc(CC(SCCc2ccc(F)cc2)C(=O)O)cc1 (stereo not shown) [Example 12, 4-{2-Carboxy-2-[2-(4-fluoro-phenyl)-ethylsulfanyl]-ethyl}-benzoic acid 2-phenyl-5 trifluoromethyl-oxazol-4-ylmethyl ester] | 58 | –
CCOC(Cc1ccc(OC(=O)Cc2nc(-c3ccccc3)oc2C)c(C)c1)C(=O)O (stereo not shown) [Example 25, 2-Ethoxy-3-{3-methyl-4-[2-(5-methyl-2-phenyl-oxazol-4-yl)-acetoxy]-phenyl}-propionic acid] | 43 | –
CS(=O)(=O)Oc1ccc(COC(=O)Cc2ccc(CC(SCCc3ccc(F)cc3)C(=O)O)cc2)cc1 (stereo not shown) [Example 4, 2-[2-(4-Fluoro-phenyl)-ethylsulfanyl]-3-[4-(4-methanesulfonyloxy-benzyloxycarbonylmethyl)-phenyl]-propionic acid] | – | 1400
CS(=O)(=O)Oc1ccc(CCSC(=O)c2ccc(CC(SCCc3ccc(F)cc3)C(=O)O)cc2)cc1 (stereo not shown) [Example 18, 2-[2-(4-Fluoro-phenyl)-ethylsulfanyl]-3-{4-[2-(4-methanesulfonyloxy-phenyl)-ethylsulfanylcarbonyl]-phenyl}-propionic acid] | – | 3400
CCOC(Cc1ccc(OC(=O)Cc2ccc(NC(=O)OC(C)(C)C)cc2)c(C)c1)C(=O)O (stereo not shown) [Example 26, 3-{4-[2-(4-tert-Butoxycarbonylamino-phenyl)-acetoxy]-3-methyl-phenyl}-2-ethoxy-propionic acid] | 73 | –
